Molecular target: T1, Chymase purified form human skin mast cells (Homo sapiens, UniProt P23946)
T1 construct: Chymase purified form human skin mast cells was obtained from Calbiochem; purchased Calbiochem (Merck Biosciences, San Diego, Calif., USA); host or cells: human skin mast cells (natural source)
T1 sequence (P23946 22-247): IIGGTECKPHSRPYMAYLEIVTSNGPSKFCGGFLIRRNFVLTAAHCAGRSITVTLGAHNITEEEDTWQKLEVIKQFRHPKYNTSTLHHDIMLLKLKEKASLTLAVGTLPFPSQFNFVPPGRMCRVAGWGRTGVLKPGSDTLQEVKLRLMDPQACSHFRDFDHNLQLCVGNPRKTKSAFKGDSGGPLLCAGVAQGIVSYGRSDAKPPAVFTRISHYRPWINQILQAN
Test: chymase peptide substrate assay (AAPF-AMC fluorescence)
Format: biochemical
Conditions: 1 nM chymase, 0.02 mM AAPF-substrate, pH 7.4, room temperature, 30 min pre-incubation
Procedure: The peptide was synthesized with a purity of 95% from Bachem, Bubendorf, Switzerland). Chymase purified form human skin mast cells was obtained from Calbiochem (Merck Biosciences, San Diego, Calif., USA). The assay buffer was 0.15 M NaCl, 0.05M, Tris HCl, 0.05% CHAPS (3-[(3-Cholamidopropyl)-dimethylammonio]-1-propane sulphonate), 0.1 mg/ml Heparin (Heparin sodium, Sigma, porcine intestinal mucosa), 0.02 mM AAPF-substrate, 1 nM Chymase at pH 7.4. The assay was performed in 96-well plates (Packard Optiplate), with a 0.05 ml volume at room temperature. Chymase activity was indicated by the initial rate of increase in fluorescence at 340/440 nm (excitation/emission) from free 7-amino-4-methylcoumarin released from the substrate. Inhibition of the activity by inhibitory compounds was read after 30 min pre-incubation with the chymase at room temperature in assay buffer without AAPF-substrate. The assay was then started by addition of the indicated concentration of AAPF-substrate.

SMILES | IC50 [nM]
CC(=O)NC(C)(C)Cc1c(C(C2=C(O)C(C)(c3ccccc3)C2=O)c2ccccc2)[nH]c2cc(C)ccc12 (stereo not shown) [Example 3, N-(2-{2-[(2-Hydroxy-3-methyl-4-oxo-3-phenyl-cyclobut-1-enyl)-phenyl-methyl]-6-methyl-1H-indol-3-yl}-1,1-dimethyl-ethyl)-acetamide] | 27
Cc1c(C(C2=C(O)C(C)(c3ccccc3)C2=O)c2ccccc2)[nH]c2ccccc12 (stereo not shown) [Example 6, 3-Hydroxy-4-methyl-2-[(3-methyl-1H-indol-2-yl)-phenyl-methyl]-4-phenyl-cyclobut-2-enone] | 34
CC(=O)NCc1c(C(C2=C(O)C(C)(c3ccccc3)C2=O)c2ccccc2)[nH]c2cc(C)ccc12 (stereo not shown) [Example 10, N-{2-[(2-Hydroxy-3-methyl-4-oxo-3-phenyl-cyclobut-1-enyl)-phenyl-methyl]-6-methyl-1H-indol-3-ylmethyl}-acetamide] | 25
Cc1ccc(C2(C)C(=O)C(C(c3ccccc3)c3[nH]c4cc(C)ccc4c3C)=C2O)cc1 (stereo not shown) [Example 13, 2-[(3,6-Dimethyl-1H-indol-2-yl)-phenyl-methyl]-3-hydroxy-4-methyl-4-p-tolyl-cyclobut-2-enone] | 8
